We go through one substance from article PMC5384871 (British journal of haematology, 2017).

Some targets named below: JAK2 (Homo sapiens, UniProt O60674); TYK2 (Homo sapiens, UniProt P29597); JAK1 (Homo sapiens, UniProt P23458).
What all share (test): biochemical kinase assay at […] ATP
Holding throughout (conditions): read-out: NDI-031301

The next test concerns the target T1, JAK3 (Homo sapiens, UniProt P52333).
T1 sequence (P52333 1-1124): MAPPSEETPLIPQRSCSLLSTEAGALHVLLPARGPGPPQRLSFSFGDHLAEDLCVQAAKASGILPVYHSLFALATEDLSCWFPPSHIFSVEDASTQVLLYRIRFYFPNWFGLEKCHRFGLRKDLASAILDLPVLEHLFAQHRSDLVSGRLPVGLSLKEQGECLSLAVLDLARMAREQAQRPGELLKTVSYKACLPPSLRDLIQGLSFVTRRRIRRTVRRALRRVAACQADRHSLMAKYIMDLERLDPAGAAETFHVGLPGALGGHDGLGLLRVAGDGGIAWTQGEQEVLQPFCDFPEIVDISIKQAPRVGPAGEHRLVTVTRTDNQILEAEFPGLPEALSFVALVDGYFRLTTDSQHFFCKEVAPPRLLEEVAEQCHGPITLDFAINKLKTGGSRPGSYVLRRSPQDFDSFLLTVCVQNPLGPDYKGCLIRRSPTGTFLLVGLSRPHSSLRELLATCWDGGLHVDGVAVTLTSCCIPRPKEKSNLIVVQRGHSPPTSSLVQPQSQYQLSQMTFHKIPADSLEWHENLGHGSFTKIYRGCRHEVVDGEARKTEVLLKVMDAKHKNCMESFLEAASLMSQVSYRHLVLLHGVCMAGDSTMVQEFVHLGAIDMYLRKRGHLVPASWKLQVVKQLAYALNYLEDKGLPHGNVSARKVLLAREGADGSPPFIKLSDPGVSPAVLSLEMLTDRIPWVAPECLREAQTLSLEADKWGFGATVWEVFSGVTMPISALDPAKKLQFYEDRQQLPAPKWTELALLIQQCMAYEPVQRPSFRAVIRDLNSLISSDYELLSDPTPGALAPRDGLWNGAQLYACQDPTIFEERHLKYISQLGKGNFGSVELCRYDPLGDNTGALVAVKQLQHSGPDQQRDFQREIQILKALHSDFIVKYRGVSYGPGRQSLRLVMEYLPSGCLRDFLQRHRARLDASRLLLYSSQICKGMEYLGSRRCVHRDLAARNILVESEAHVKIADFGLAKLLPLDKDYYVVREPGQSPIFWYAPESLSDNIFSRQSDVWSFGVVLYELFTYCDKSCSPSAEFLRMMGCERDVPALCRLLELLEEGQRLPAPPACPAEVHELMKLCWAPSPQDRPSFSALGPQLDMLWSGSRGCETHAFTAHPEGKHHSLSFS

Sequence of JAK1 (P23458 whole entry): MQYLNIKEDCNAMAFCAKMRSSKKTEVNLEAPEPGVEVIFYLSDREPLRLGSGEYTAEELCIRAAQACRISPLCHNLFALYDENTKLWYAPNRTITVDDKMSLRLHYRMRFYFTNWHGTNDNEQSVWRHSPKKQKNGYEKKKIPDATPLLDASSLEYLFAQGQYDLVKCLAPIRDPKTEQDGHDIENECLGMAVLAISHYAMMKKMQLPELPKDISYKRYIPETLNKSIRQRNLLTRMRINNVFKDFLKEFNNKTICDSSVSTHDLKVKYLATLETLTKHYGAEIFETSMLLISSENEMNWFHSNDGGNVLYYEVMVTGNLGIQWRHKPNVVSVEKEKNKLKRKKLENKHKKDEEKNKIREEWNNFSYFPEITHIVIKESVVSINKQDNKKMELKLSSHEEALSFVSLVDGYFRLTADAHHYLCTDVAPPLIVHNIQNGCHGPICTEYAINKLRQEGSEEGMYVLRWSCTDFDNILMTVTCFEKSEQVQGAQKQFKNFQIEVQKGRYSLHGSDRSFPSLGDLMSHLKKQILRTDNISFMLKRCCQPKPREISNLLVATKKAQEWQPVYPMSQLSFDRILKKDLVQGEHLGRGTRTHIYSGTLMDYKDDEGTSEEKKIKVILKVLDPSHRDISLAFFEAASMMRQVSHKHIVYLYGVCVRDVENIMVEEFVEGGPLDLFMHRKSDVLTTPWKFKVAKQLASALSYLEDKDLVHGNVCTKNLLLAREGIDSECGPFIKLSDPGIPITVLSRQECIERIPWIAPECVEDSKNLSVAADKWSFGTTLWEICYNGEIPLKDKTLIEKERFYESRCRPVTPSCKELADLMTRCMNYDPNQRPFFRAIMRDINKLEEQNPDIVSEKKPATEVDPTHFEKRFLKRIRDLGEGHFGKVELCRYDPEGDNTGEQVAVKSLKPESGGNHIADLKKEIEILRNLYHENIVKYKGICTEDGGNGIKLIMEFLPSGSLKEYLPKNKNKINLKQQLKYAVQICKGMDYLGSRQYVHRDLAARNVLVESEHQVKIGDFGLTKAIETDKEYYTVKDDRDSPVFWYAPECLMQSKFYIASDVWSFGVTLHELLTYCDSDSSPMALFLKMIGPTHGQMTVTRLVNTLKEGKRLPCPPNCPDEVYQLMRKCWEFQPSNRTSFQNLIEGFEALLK
Sequence of JAK2 (O60674 whole entry): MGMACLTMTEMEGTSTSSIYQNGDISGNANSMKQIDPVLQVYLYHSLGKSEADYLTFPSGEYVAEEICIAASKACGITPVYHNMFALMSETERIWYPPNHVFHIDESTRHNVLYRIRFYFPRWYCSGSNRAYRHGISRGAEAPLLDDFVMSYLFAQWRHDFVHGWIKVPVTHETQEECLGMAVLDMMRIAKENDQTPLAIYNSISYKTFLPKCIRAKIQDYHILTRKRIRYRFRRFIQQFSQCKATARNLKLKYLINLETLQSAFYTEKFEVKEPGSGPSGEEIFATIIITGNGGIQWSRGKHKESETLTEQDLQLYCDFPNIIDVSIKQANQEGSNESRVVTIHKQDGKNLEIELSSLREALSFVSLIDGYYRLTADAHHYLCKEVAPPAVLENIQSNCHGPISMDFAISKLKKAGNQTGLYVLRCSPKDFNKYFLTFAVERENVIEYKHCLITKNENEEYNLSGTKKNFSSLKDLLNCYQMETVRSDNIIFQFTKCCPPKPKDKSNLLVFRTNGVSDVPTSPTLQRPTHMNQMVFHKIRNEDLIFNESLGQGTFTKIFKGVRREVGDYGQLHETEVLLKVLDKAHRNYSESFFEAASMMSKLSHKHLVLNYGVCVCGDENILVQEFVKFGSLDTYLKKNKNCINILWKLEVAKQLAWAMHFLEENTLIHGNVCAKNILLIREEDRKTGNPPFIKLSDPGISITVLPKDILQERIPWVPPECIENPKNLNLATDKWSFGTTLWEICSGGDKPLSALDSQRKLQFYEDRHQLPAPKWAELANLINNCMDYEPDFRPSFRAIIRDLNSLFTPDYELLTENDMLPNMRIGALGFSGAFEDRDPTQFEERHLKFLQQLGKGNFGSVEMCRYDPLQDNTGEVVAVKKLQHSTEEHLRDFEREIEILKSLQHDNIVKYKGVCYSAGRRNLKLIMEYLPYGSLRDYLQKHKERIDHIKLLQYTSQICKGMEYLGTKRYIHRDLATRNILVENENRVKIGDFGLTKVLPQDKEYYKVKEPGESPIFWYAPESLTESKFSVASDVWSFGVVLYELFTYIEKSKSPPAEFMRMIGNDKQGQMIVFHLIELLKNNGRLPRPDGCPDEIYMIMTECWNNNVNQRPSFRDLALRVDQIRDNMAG
Sequence of TYK2 (P29597 whole entry): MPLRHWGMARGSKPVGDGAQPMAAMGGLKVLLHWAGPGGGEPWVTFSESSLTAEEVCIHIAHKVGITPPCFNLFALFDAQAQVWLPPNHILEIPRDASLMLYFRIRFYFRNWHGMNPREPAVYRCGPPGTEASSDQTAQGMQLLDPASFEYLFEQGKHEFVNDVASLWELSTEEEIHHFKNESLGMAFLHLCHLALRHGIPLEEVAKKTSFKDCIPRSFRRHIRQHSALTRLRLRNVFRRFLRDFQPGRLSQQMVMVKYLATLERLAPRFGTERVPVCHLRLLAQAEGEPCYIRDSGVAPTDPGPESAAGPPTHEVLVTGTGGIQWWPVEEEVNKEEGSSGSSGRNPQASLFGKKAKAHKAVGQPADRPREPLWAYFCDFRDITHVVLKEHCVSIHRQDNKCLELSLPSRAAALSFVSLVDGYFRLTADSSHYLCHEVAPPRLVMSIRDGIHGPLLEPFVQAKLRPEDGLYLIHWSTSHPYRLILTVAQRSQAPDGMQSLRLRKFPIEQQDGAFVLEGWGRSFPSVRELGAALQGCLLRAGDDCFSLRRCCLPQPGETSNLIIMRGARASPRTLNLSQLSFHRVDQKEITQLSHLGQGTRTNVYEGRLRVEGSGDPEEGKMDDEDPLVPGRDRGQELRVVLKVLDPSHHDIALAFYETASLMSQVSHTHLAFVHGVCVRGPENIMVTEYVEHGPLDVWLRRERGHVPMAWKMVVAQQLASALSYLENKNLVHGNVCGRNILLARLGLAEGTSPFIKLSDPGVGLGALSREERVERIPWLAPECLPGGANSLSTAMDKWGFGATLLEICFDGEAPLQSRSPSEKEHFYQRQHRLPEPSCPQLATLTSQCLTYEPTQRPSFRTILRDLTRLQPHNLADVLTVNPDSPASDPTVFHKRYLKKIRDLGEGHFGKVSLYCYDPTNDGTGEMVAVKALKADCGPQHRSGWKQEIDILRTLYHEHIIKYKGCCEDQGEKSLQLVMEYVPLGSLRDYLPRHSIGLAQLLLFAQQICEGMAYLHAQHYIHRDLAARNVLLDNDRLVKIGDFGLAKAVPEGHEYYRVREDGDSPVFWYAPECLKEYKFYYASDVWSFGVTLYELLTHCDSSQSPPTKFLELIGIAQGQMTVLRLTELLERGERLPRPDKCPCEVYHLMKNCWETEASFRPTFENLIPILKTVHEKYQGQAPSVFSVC

Regarding NDI-031301, the Ki worked out at 2.75 µM at JAK2, 2.48 µM at JAK3, 0.13 µM on TYK2 and 2.2 µM on JAK1.
